# According to PMC7669869, “AdipoR1/AdipoR2 dual agonist recovers nonalcoholic steatohepatitis and related fibrosis via endoplasmic reticulum-mitochondria axis” (Nature Communications, 2020):
# Entries after “also recorded” stand apart in the source; their conditions may differ. Non-standard residues stand in square brackets, D forms with d. Residues, ends and D or L forms follow the SMILES beside them. Nva = CCC[C@H](N)C(=O)O
# What was measured:
# [1] = tested on: AdipoR1 and AdipoR2 in LX2 cells; experiment: RNA interference (AdipoR1/AdipoR2 siRNA) in LX2: PPARα, PPARγ mRNA and protein; type: cell-based, human; details: JT003 48 h, in words
# Procedure: (§1) AdipoR1 and AdipoR2 siRNA as well as mock siRNA were chemically synthesized (GenePharma, China) and transfected into 60–70% confluent HepG2 and LX2 cells using Lipofectamine 3000 (ThermoFisher Scientific, USA). Dilution of siRNA and Lipofectamine 3000 reagents as well as the transfection of cells were performed following the manufacturer’s protocol. For HepG2 cell model, 5E5 cells were plated in 6-well plates and transfected with 5 μL of 20 μM stock siRNA. At 48 h following transfection, the cells were processed for 0.25 mM PA and/or 200 μM JT003 treated for another 24 h. BSA was used as the negative control. […]
# (§2) Liver total RNA was extracted by using Trizol reagent following the manufacture’s instruction (TransGen Biotech, China). The concentration of RNA was measured by Nanodrop 2000 (ThermoFisher Scientific, USA). cDNA was transcribed from 10ug total RNA with First Strand cDNA synthesis Super Mix (TransGen Biotech, China). […] Reference gene β-actin was used for data normalization. mRNA expression was analyzed with specific primers listed in Supplementary Table 2.
# (§3) Total protein was isolated from cells or liver samples using RIPA lysis buffer (50.0 mM Tris-HCl (pH = 8.0), 150.0 mM NaCl, 0.02% NaN3, 0.1% SDS, 1% NP-40, 0.5% deoxysodium cholate, 1 mM EDTA, […]). The protein concentration was quantified with BCA kit (Pierce, ThermoFisher Scientific, USA). […]
# [2] = tested on: CCl4 induced liver fibrosis mice; experiment: CCl4 mice: apoptosis assay (TUNEL); type: in vivo, mouse; parameters: unit not given here; details: CCl4 + JT003 mice
# Procedure: Male mice liver fibrosis was induced by intraperitoneal injection of 20% CCl4 (Sigma, USA) diluted in corn oil (Aladdin, China) every 3 days for 6 weeks (n = 6; 5 ml kg^−1 body weight). Mice injected with equivalent volume of corn oil serves as control group (n = 6). Liver fibrosis mice treated with JT003 for 3 weeks were used to evaluated the pharmacological effects (n = 6; 500 μg kg^−1; daily intraperitoneal injection).
# TUNEL assay was performed using 5 μm liver sections and the apoptotic cells were identified using a Cell Death Detection kit (Beyotime Biotechnology, Shanghai, China). And then the slices were counterstained with DAPI (Life science, ThermoFisher Scientific, USA). Six random fields from 6 slides per mice were examined, and the TUNEL-positive red area within the slides were counted by two individuals who were blinded to the treatment.
# [3] = tested on: AdipoR1 and AdipoR2 on HepG2 and LX2 cells; experiment: Cell confocal imaging, receptor binding of FITC labeled peptide (with AdipoR siRNA); parameters: species or system human; details: 37 °C, 2 or 4 h, AdipoR1/AdipoR2 siRNA as control, in words
# Procedure: For in vitro receptor binding assay, 4E4 HepG2 cells or 2E4 LX2 cells were seeded on 35 mm glass bottom dish with 150 μL complete medium. Then cells were incubated with FITC labeled peptide for 4 h. The nuclei were stained with Hoechst 33342 (ThermoFisher, Scientific, USA). After washing with PBS, cells were visualized in a laser confocal microscope (Olympus FV3000, Japan). Cells with suppressed AdipoR1 and AdipoR2 expression with each specific siRNA were used as negative control.
# AdipoR1 and AdipoR2 siRNA as well as mock siRNA were chemically synthesized (GenePharma, China) and transfected into 60–70% confluent HepG2 and LX2 cells using Lipofectamine 3000 (ThermoFisher Scientific, USA). Dilution of siRNA and Lipofectamine 3000 reagents as well as the transfection of cells were performed following the manufacturer’s protocol. For HepG2 cell model, 5E5 cells were plated in 6-well plates and transfected with 5 μL of 20 μM stock siRNA. At 48 h following transfection, the cells were processed for 0.25 mM PA and/or 200 μM JT003 treated for another 24 h. BSA was used as the negative control. For LX2 cell model, 2E5 cells were plated in 6-well plates and transfected with 5 μL of 20 μM stock siRNA. At 48 h following transfection, the cells were processed for JT003 or PBS treated for another 48 h. Next, cells were harvested for either western blot or qPCR assay.
# HepG2 cells = experiment: PA induced lipid accumulation, Oil Red O staining; type: cell-based, human; details: HepG2, 0.25 mM PA + 200 μM peptide, 24 h; in words
# Procedure: (§4) Hepatoma carcinoma cell line HepG2 and human hepatic activated stellate cell line LX2 used in this study were purchased from Type Culture Collection of the Chinese Academy of Sciences (Shanghai, China). Cells were cultured in Dulbecco’s modified Eagle’s medium (DMEM) with 10% fetal bovine serum (FBS), supplemented with 1% penicillin–streptomycin (ThermoFisher Scientific, USA) at 37 °C in a humidified atmosphere of 5% CO2. In PA (Sigma, USA) induced lipid accumulation cell model, HepG2 cells were seeded into a 6-well plate at 5E5 cells per well. 0.25 mM PA and/or 200 μM candidate peptides were co-incubated with cells for 24 h. Then Oil Red O staining was performed to evaluate the accumulation of lipid droplets. BSA (Sigma, USA) was used in this experiment as the negative control. For LX2 cells, 2E5 cells were seeded, then the adherent cells were exposed to 200 μM candidate peptides for another 48 h. Next, the cell protein was obtained and western blotting was performed. Candidate peptides were diluted in DMEM in a stock concentration of 1 M.
# [4] = tested on: αSMA expression in LX2 cells; experiment: Western blotting for αSMA expression in LX2; type: cell-based, human; details: LX2, 200 μM peptide, 48 h; western blot; in words
# Procedure: as §4, with “For LX2 cells, 2E5 cells were seeded, then the adherent cells were exposed to 200 μM candidate peptides for another 48 h. Next, the cell protein was obtained and western blotting was performed. Candidate peptides were diluted in DMEM in a stock concentration of 1 M.” left out
# Total protein was isolated from cells or liver samples using RIPA lysis buffer (50.0 mM Tris-HCl (pH = 8.0), 150.0 mM NaCl, 0.02% NaN3, 0.1% SDS, 1% NP-40, 0.5% deoxysodium cholate, 1 mM EDTA, […]). The protein concentration was quantified with BCA kit (Pierce, ThermoFisher Scientific, USA). […] After incubation with the secondary antibody, proteins were detected by enhanced chemiluminescence (Glarity^TM Western ECL Substrate, Bio-Rad, USA) and the signals were recorded and quantified with Tanon-Image Software (Shanghai, China). […]
# [5] = tested on: AdipoR1 and AdipoR2 in HepG2 cells; experiment: RNA interference (AdipoR1/AdipoR2 siRNA) in PA induced HepG2: PPARα, PPARγ mRNA and protein; type: cell-based, human; details: PA induced HepG2, 200 μM JT003; in words
# Procedure: as §1, §2, §3
smiles,measurement,setting,value
CCC[C@H](NC(=O)[C@@H]1CCCN1)C(=O)N[C@@H](CC(C)C)C(=O)N[C@@H](Cc1ccc(O)cc1)C(=O)N[C@@H](Cc1ccc(O)cc1)C(=O)N[C@@H](Cc1ccccc1)C(=O)N[C@@H](C)C(N)=O [JT003] (H-P[Nva]LYYFA-NH2),effect of AdipoR1 and AdipoR2 siRNA on PPARα level induced by JT003,[1],reduced the increase of the PPARα level induced by JT003
same,"TUNEL, Supplementary Figure 16",[2]; replicate 1,0.177
same,"TUNEL, Supplementary Figure 16",[2]; replicate 2,0.215
same,"TUNEL, Supplementary Figure 16",[2]; replicate 3,0.261
same,"TUNEL, Supplementary Figure 16",[2]; replicate 4,0.303
same,"TUNEL, Supplementary Figure 16",[2]; replicate 5,0.387
same,"TUNEL, Supplementary Figure 16",[2]; replicate 6,0.3
same,"TUNEL, Supplementary Figure 16",[2]; replicate 7,0.353
same,"TUNEL, Supplementary Figure 16",[2]; replicate 8,0.189
same,"TUNEL, Supplementary Figure 16",[2]; replicate 9,0.125
same,"TUNEL, Supplementary Figure 16",[2]; replicate 10,0.252
same,"binding to AdipoRs on the cell membrane (confocal, FITC)",[3],could specifically bind to AdipoR1 and/or AdipoR2 on the cell membrane
same,lipid droplets accumulation caused by PA (Oil Red O),HepG2 cells,exhibited the best potential
same,expression level of αSMA in LX2 cells,[4],significantly decrease; also recorded: showed the best performance in inhibiting fibroblast formation
same,effect of AdipoR1 and/or AdipoR2 siRNA on JT003 mediated PPARα and PPARγ expression,[5],blocked the JT003 effects on mediating PPARα and PPARγ expression
